# Test results reported in patent US20250120988A1, “SMALL MOLECULE COMPOUND FOR TREATING ISCHEMIC STROKE, ITS PREPARATION METHOD, AND APPLICATION” (SHANGHAI SIXTH PEOPLE'S HOSPITAL, priority 2023, published 2025).
# Columns and labels:
# MCAO model = assay: MCAO cerebral ischemia model, cerebral infarction volume (TTC staining); assay type: in vivo, mice; conditions: 30 mg/kg intraperitoneal; MCAO 30 minutes, 24 hours after ischemia
# Description: Figure a illustrates the TTC staining results of brain slices obtained from animals sacrificed 24 hours after different drug treatments following MCAO ischemia for 30 minutes. The dark areas represent normal brain tissue, while the white areas represent infarcted brain tissue. CGS19755 was administered at a concentration of 1 mg/kg (intraperitoneal injection), PcTX-1 was administered at a concentration of 100 ng/kg (ASIC1a blocker, intranasal drip), LK-2 was administered at concentrations of 10 mg/kg or 30 mg/kg (intraperitoneal injection), and Saline was used as the control group. […] The specific steps are as follows: a transient focal ischemic model was formed by occluding the middle cerebral artery for 30 minutes in wild-type or ASIC1a gene knockout mice. The animals were anesthetized using the animal anesthesia machine (RWD). During the induction of anesthesia, the animals are placed in a transparent chamber (15×25×30 cm) containing 2% isoflurane. During the MCAO procedure, the animals are worn a mask delivering 1% isoflurane. Complete occlusion of the middle cerebral artery was confirmed using continuous laser Doppler blood flow measurement (Moor, FLPI-2). Animals with less than 50% reduction in blood flow during MCAO were excluded. […] In this test, mice were placed on the rotating rod and the time to fall was recorded. […]
# primary cortical neurons [1] = assay: Calcein-PI cell death staining of primary neurons under oxygen-glucose deprivation (OGD); assay type: cell-based, mice; conditions: 10 μM; primary cultured neurons; OGD 1 hour, pH 7.0
# Description: (§1) Figure a illustrates cortical neurons staining from wild-type (ASIC1a+/+) and gene-deficient (ASIC1a−/−) mice primary cultures in the calcein-PI staining experiment. Blue green represents viable cells, and red represents dead cell nuclei. 10 μM CGS19755 and 10 μM LK-2 were added respectively in the cell culture medium under pH 7.0 conditions with OGD to be treated for 1 hour. Figure c illustrates, after being treated in the same experimental groups as Figure a, the analysis of each group of LDH of relative release levels. Figure d illustrates PI staining of ASIC1a-transfected CHO cells after 1 hour of treatment with pH 7.0 and 500 μM glutamate (Glu). […]
# Taking into consideration that in addition to ASIC1a, neurons also express multiple membrane proteins that can be activated and lead to cell death during OGD, in order to more accurately verify that cell death is caused by glutamate activation of ASIC1a and that LK-2 indeed competitively antagonizes the glutamate so as to reduce cell death, we conducted the following experiment: CHO cells transfected with ASIC1a-GFP were divided into a control group (500 μM glutamate) and a drug intervention group (500 μM glutamate+10 μM LK-2). […] Live and dead cell nuclei were determined by observing under a 40× objective using excitation wavelengths of 488 nm and 546 nm. The number of stained cell nuclei was counted using Image-J software.
# primary cortical neurons [2] = assay: LDH release from cultured neurons after OGD; assay type: cell-based, mice; conditions: 10 μM, OGD 1 hour, pH 7.0
# Description: as §1, with “(Glu). Green represents green fluorescent protein (GFP), indicating ASIC1a-expressing CHO cells (GFP+), and red represents dead cell nuclei. The concentration of LK-2 was 10 μM. GFP-indicates ASIC1a-untransfected cells.” for “(Glu).”
# The LDH assay kit (Biyuntian) was used to measure the release of LDH from cultured neurons after 1 hour of oxygen-glucose deprivation (OGD). […] The absorbance of the target was measured at 490 nm wavelength using a spectrophotometer (Thermo Scientific), while the background absorbance was measured at 620 nm wavelength. […]
compound,measurement,setting,value
O=C(O)C1CN(C(c2ccccc2)P(=O)(O)O)CCN1 (stereo not drawn) [LK-2],reduction of volume of cerebral infarction,MCAO model,52.8%
same,reduction of cell death rate,primary cortical neurons [1],87%
same,reduction of lactate dehydrogenase release,primary cortical neurons [2],50%
